Source: US20050049242A1 (priority 2000, published 2005)
pEC50, pIC50: −log10 of the molar value. Where two headings read alike, the source gives them in different places.

Key:
HIV-1NL4-3clone1-D4 = type: cell-based; conditions: for efficacy against the L-chicoric acid resistant clone: compared with parental HIVNL4-3
Description: (§1) Cloning and sequencing of virus from the HIVNL4-3 passaged in the presence of 8 μM L-chicoric acid was undertaken to determine the molecular basis for resistance to L-chicoric acid and to isolate a resistant HIV clone.
This cloning was accomplished through site-directed mutagenesis introducing several silent mutations immediately upstream and downstream of the integrase gene. These mutations generated two unique restriction sites: an upstream SacII and a downstream XbaI (FIG. 15). Introduction of these mutations allowed the entire integrase gene with only minimal upstream and downstream nucleotides to be digested and “swapped” between drug-resistant and drug-sensitive clones.

[1] = system: HIVNL4-3 passaged in the presence of 8 μM L-chicoric acid; assay: Cytopathicity assay against virus passaged in 8 μM L-chicoric acid; type: cell-based, HIV; conditions: FIG. 14
Description: HIVNL4-3 plasmid (a gift from Dr. P. Krogstad, UCLA, Los Angeles, Calif.), was transfected in HeLa cells using Lipofectin® (Gibco/BRL). Excess DNA was removed by washing and cells were co-cultured with H9 cells for 18 hours. The H9 cells were removed and re-cultured in growth medium. When the culture was 100% positive for HIV antigens by indirect immunofluorescence, the virus was inoculated onto H9 cells and incubated at 37° C. for several weeks in the presence of 2 μM L-chicoric acid. When this culture was 100% positive the virus was isolated and one aliquot was passaged in a similar manner in 4 μM L-chicoric acid. Finally, virus was cultured in the presence of 8 μM L-chicoric acid and the resultant virus filter-clarified, aliquoted, and stored at −70° C.
as §1

HIV-1NL4-3 = assay: Anti-HIV cytopathicity assay against parental molecular clone; type: cell-based
Description: as §1
Assays, as described above, to determine the ED50 for a given compound against the molecular clone HIVNL4-3clone1-D4 and the parental clone HIVNL4-3 give an indication of the selectivity of the compound for inhibition of HIV replication through IN. Resistance to a compound, as measured by an increased ED50, by clone HIVNL4-3clone1-D4, implies selectivity of the compound for IN. Thus clone HIVNL4-3clone1-D4 can be used to screen candidate IN inhibitors for selectivity.

HIV-1 IN = HIV-1 IN (Human immunodeficiency virus type 1 group M subtype B, UniProt P12497); conditions: read-out: IC50 (IN dependent disintegration); purified HIV IN, MnCl2
HIVLAI = assay: Anti-HIV assay, protection from HIV-induced cell death; type: cell-based; conditions: read-out: ED50 (concentration that inhibits HIV-induced cell death by 50%); HIVLAI, MT-2 cells, 72 hr
Description: Anti-HIV assays were performed as described above. […] The compounds were then two-fold serially diluted in triplicate. To each 50 μl of diluted compound, 50 μl of HIVLAI was added and the virus-drug mixture was incubated for 1 hr at 37° C. […] Final multiplicity of infection (MOI) was 1-5. Cells were harvested to quantitate cytopathic effect using a neutral red dye assay as described.

Dicaffeoyl-L-tartaric acid [Compound 1]
efficacy against the L-chicoric acid resistant clone (HIV-1NL4-3clone1-D4): reduced efficacy | efficacy against the L-chicoric acid resistant clone (HIV-1NL4-3clone1-D4; listed as L-chicoric acid): resistant | pEC50 (HIV-1NL4-3clone1-D4; mean of triplicate infections, read-out: ED50 HIVNL4-3clone1-D4): 4.21 | resistance of passaged virus to the compound [1]: completely resistant | pEC50 (HIV-1NL4-3; control virus passaged without inhibitor, FIG. 14, read-out: ED50 against HIVNL4-3 control virus): 6.40 | pEC50 (HIV-1NL4-3; mean of triplicate infections, read-out: ED50 HIVNL4-3): 6.11

Di-3,4-dihydrodihydroxybenzylidine succinic acid [Compound 38]
pIC50 (HIV-1 IN): 6.07 | pEC50 (HIVLAI): 5.36
